Measured values reported in patent US4976874A, “Control of biofouling in aqueous systems by non-polymeric quaternary ammonium polyhalides” (Great Lakes Chemical Corporation, priority 1989, dated 1990).
Read-outs that look alike come from different tables or passages of the source.

What was measured:
Pseudomonas aeruginosa = assay: % Kill of Pseudomonas aeruginosa; assay type: cell-based; conditions: read-out: Percent Kill Pseudomonas aeruginosa; for killing at 0.23 µg/mL: 0.23 ppm free bromine; for killing at 0.34 µg/mL: 0.34 ppm free bromine; for killing at 0.2 µg/mL: 0.20 ppm free bromine; for killing at 0.25 µg/mL: 0.25 ppm free bromine
Excerpt: Quaternary ammonium polyhalides and surfactant mixtures thereof have biocidal properties in aqueous systems where oxidizing biocides are compatible; that is, in aqueous systems having a low halogen demand.
The data in Tables 3-5 indicate that the combination of a water soluble liquid quaternary ammonium polyhalide and a surfactant provides an enhanced efficacy over the liquid quaternary ammonium polyhalide alone. This may be a result of the surface active effect on exopolysaccharides and/or biological membranes.

[1] = Japanese Patent Publication No. 49/14,411; cited from earlier work
[2] = Japanese Patent Publication No. 49/14,411; cited from earlier work; remark: listed apart in the source

## CCCCCCCC[N+](C)(C)CCCCCCCC [Compound 2, N-N-Dimethyl-N,N-dioctylammonium dibromochloride]
Pseudomonas aeruginosa; 1 min, 1 min
  killing at 0.23 µg/mL: 82%
Pseudomonas aeruginosa; 0.05 h, 3 min
  killing at 0.23 µg/mL: 100%
Pseudomonas aeruginosa; 5 min, 5 min
  killing at 0.23 µg/mL: 100%
Pseudomonas aeruginosa; 10 min, 10 min
  killing at 0.23 µg/mL: 100%

## COCCOCC[N+](C)(CCOCCOC)CCOCCOC [Compound 3, N-Methyl-N,N,N-tris(3,6-dioxaheptyl)ammonium diobromoiodide]
Pseudomonas aeruginosa; 1 min, 1 min
  killing at 0.34 µg/mL: 98.6%
Pseudomonas aeruginosa; 0.05 h, 3 min
  killing at 0.34 µg/mL: 100%
Pseudomonas aeruginosa; 5 min, 5 min
  killing at 0.34 µg/mL: 100%
Pseudomonas aeruginosa; 10 min, 10 min
  killing at 0.34 µg/mL: 100%

## CCCCCCCCN(C)C [Compound 4, N,N-Dimethyl-N-octylamine hydrotribromide]
Pseudomonas aeruginosa; 1 min, 1 min
  killing at 0.34 µg/mL: 99.9%
Pseudomonas aeruginosa; 0.05 h, 3 min
  killing at 0.34 µg/mL: 100%
Pseudomonas aeruginosa; 5 min, 5 min
  killing at 0.34 µg/mL: 100%
Pseudomonas aeruginosa; 10 min, 10 min
  killing at 0.34 µg/mL: 100%

## CC[N+](C)(C)C [Compound 5, N-Ethyl-N,N,N-trimethylammonium tribromide]
Pseudomonas aeruginosa; 1 min, 1 min
  killing at 0.34 µg/mL: 99.9%
Pseudomonas aeruginosa; 0.05 h, 3 min
  killing at 0.34 µg/mL: 100%
Pseudomonas aeruginosa; 5 min, 5 min
  killing at 0.34 µg/mL: 100%
Pseudomonas aeruginosa; 10 min, 10 min
  killing at 0.34 µg/mL: 100%

## CCC[N+](C)(C)CC [Compound 6, N,N-Dimethyl-N-ethyl-N-propylammonium pentabromide]
Pseudomonas aeruginosa; 1 min, 1 min
  killing at 0.34 µg/mL: 99.6%
Pseudomonas aeruginosa; 0.05 h, 3 min
  killing at 0.34 µg/mL: 100%
Pseudomonas aeruginosa; 5 min, 5 min
  killing at 0.34 µg/mL: 100%
Pseudomonas aeruginosa; 10 min, 10 min
  killing at 0.34 µg/mL: 100%

## C[N+](C)(C)CCO [Compound 7, N-(2-Hydroxyethyl)-N,N,N-trimethylammonium tribromide]
Pseudomonas aeruginosa; 1 min, 1 min
  killing at 0.2 µg/mL: 56.6%
Pseudomonas aeruginosa; 0.05 h, 3 min
  killing at 0.2 µg/mL: 99.6%
Pseudomonas aeruginosa; 5 min, 5 min
  killing at 0.2 µg/mL: 100%
Pseudomonas aeruginosa; 10 min, 10 min
  killing at 0.2 µg/mL: 100%

## COCCOCCN(CCOCCOC)CCOCCOC [Compound 8, N,N,.N-tris(3,6-Dioxaheptyl)amine hydrotribromide]
Pseudomonas aeruginosa; 1 min, 1 min
  killing at 0.23 µg/mL: 99.9%
Pseudomonas aeruginosa; 0.05 h, 3 min
  killing at 0.23 µg/mL: 100%
Pseudomonas aeruginosa; 5 min, 5 min
  killing at 0.23 µg/mL: 100%
Pseudomonas aeruginosa; 10 min, 10 min
  killing at 0.23 µg/mL: 100%

## CCC[N+](CCOCCOC)(CCOCCOC)CCOCCOC [Compound 9, N-Propyl-N,N,N-tris(3,6-dioxaheptyl)-ammonium tribromide]
Pseudomonas aeruginosa; 1 min, 1 min
  killing at 0.23 µg/mL: 21.5%
Pseudomonas aeruginosa; 0.05 h, 3 min
  killing at 0.23 µg/mL: 82%
Pseudomonas aeruginosa; 5 min, 5 min
  killing at 0.23 µg/mL: 100%
Pseudomonas aeruginosa; 10 min, 10 min
  killing at 0.23 µg/mL: 100%

## CCCCCCCCCCCCCC[N+](C)(C)Cc1ccccc1 [Compound 11, N-Benzyl-N,N-dimethyl-N-myristyl-ammonium dibromochloride]
Pseudomonas aeruginosa; 1 min, 1 min
  killing at 0.34 µg/mL: 100%
Pseudomonas aeruginosa; 0.05 h, 3 min
  killing at 0.34 µg/mL: 100%
Pseudomonas aeruginosa; 5 min, 5 min
  killing at 0.34 µg/mL: 100%
Pseudomonas aeruginosa; 10 min, 10 min
  killing at 0.34 µg/mL: 100%

## CCOCC[N+](C)(C)C [Compound 12, N-Ethoxyethyl-N,N,N-trimethylammonium tribromide]
Pseudomonas aeruginosa; 1 min, 1 min
  killing at 0.34 µg/mL: 100%
Pseudomonas aeruginosa; 0.05 h, 3 min
  killing at 0.34 µg/mL: 100%
Pseudomonas aeruginosa; 5 min, 5 min
  killing at 0.34 µg/mL: 99.9%
Pseudomonas aeruginosa; 10 min, 10 min
  killing at 0.34 µg/mL: 100%

## CCC[N+](C)(C)CC [Compound 13, N,N-Dimethyl-N-ethyl-N-propylammonium dichlorobromide]
Pseudomonas aeruginosa; 1 min, 1 min
  killing at 0.25 µg/mL: 100%
Pseudomonas aeruginosa; 0.05 h, 3 min
  killing at 0.25 µg/mL: 100%
Pseudomonas aeruginosa; 5 min, 5 min
  killing at 0.25 µg/mL: 100%
Pseudomonas aeruginosa; 10 min, 10 min
  killing at 0.25 µg/mL: 100%

## CC[N+](C)(C)C [Compound 14, N-Ethyl-N,N,N-tri-methylammonium dichlorobromide]
Pseudomonas aeruginosa; 1 min, 1 min
  killing at 0.2 µg/mL: 100%
Pseudomonas aeruginosa; 0.05 h, 3 min
  killing at 0.2 µg/mL: 100%
Pseudomonas aeruginosa; 5 min, 5 min
  killing at 0.2 µg/mL: 100%
Pseudomonas aeruginosa; 10 min, 10 min
  killing at 0.2 µg/mL: 100%

## CCCCCCCCCC[N+](C)(C)CCCCCCCCCC [Compound 15, N,N-Didecyl-N,N-dimethyl-ammonium dibromochloride]
Pseudomonas aeruginosa; 1 min
  killing at 0.3 µg/mL: 100%
Pseudomonas aeruginosa; 0.05 h
  killing at 0.3 µg/mL: 100%
Pseudomonas aeruginosa; 5 min
  killing at 0.3 µg/mL: 100%
Pseudomonas aeruginosa; 10 min
  killing at 0.3 µg/mL: 100%

## CCCCCCCCCCCCCCCC[n+]1ccccc1 [cetylpyridinium tribromide]
[1]
  water solubility: water insoluble
[2]
  biocidal properties: having biocidal properties

## CCCCCCCCCCCCCCCC[N+](C)(C)C.[Br-] [cetyltrimethylammonium bromide]
[2]
  biocidal properties: having biocidal properties

## CCCCCCCCCCCCCCCC[N+](C)(C)C [cetyltrimethylammonium tribromide]
[1]
  water solubility: water insoluble
[2]
  biocidal properties: having biocidal properties
